Key:
Test in all cases: relative viability (nuclei count vs DMSO), 5 days (fraction); higher = more cells survive
PAC-1 + OSI-027 = compound: C=CCc1cccc(/C=N/NC(=O)CN2CCN(Cc3ccccc3)CC2)c1O [PAC-1] + COc1cccc2cc(-c3nc([C@H]4CC[C@H](C(=O)O)CC4)n4ncnc(N)c34)[nH]c12 [OSI-027] (partner 0.5 µM)
Procedure, shortened: (§1)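 Lung cancer cell lines were seeded in 1536-well plates and dosed by pin tool the next day, with either a single drug or a fixed anchor-drug dose combined with five library-drug doses (not always all listed) spaced in √10 steps. Five days later, one step fixed the cells and stained their nuclei (final 0.05% Triton X-100, 1% formaldehyde, 1 ug/ml Hoechst), and nuclei were counted on 4× images. Relative viability is the nuclei count in treated wells divided by the count in vehicle wells, and each value is the median of duplicate plates.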

PAC-1 + Phenformin = compound: C=CCc1cccc(/C=N/NC(=O)CN2CCN(Cc3ccccc3)CC2)c1O [PAC-1] + N=C(N)NC(=N)NCCc1ccccc1 [Phenformin] (partner 250 µM)
Procedure, shortened: as §1

BMX-IN-1 + AZD7762 = compound: C=CC(=O)Nc1cc(-n2c(=O)ccc3cnc4ccc(-c5ccc(NS(C)(=O)=O)cc5)cc4c32)ccc1C [BMX-IN-1] + NC(=O)Nc1cc(-c2cccc(F)c2)sc1C(=O)N[C@H]1CCCNC1 [AZD7762] (partner 0.2 µM)
Procedure, shortened: as §1

PAC-1 + Crizotinib = compound: C=CCc1cccc(/C=N/NC(=O)CN2CCN(Cc3ccccc3)CC2)c1O [PAC-1] + C[C@@H](Oc1cc(-c2cnn(C3CCNCC3)c2)cnc1N)c1c(Cl)ccc(F)c1Cl [Crizotinib] (partner 1 µM)
Procedure, shortened: as §1

BMX-IN-1 + Bortezomib = compound: C=CC(=O)Nc1cc(-n2c(=O)ccc3cnc4ccc(-c5ccc(NS(C)(=O)=O)cc5)cc4c32)ccc1C [BMX-IN-1] + CC(C)C[C@H](NC(=O)[C@H](Cc1ccccc1)NC(=O)c1cnccn1)B(O)O [Bortezomib] (partner 0.002 µM)
Procedure, shortened: as §1

Cell Line | relative viability (PAC-1 + OSI-027; first compound 0.02 µM) | relative viability (PAC-1 + OSI-027; first compound 0.06325 µM) | relative viability (PAC-1 + OSI-027; first compound 0.2 µM) | relative viability (PAC-1 + OSI-027; first compound 2 µM) | relative viability (PAC-1 + Phenformin; first compound 0.02 µM) | relative viability (PAC-1 + Phenformin; first compound 0.06325 µM) | relative viability (PAC-1 + Phenformin; first compound 0.2 µM) | relative viability (PAC-1 + Phenformin; first compound 2 µM) | relative viability (BMX-IN-1 + AZD7762; first compound 0.02 µM) | relative viability (BMX-IN-1 + AZD7762; first compound 0.2 µM) | relative viability (BMX-IN-1 + AZD7762; first compound 0.6325 µM) | relative viability (BMX-IN-1 + AZD7762; first compound 2 µM) | relative viability (PAC-1 + Crizotinib; first compound 0.02 µM) | relative viability (PAC-1 + Crizotinib; first compound 0.06325 µM) | relative viability (PAC-1 + Crizotinib; first compound 0.2 µM) | relative viability (PAC-1 + Crizotinib; first compound 2 µM) | relative viability (BMX-IN-1 + Bortezomib; first compound 0.02 µM) | relative viability (BMX-IN-1 + Bortezomib; first compound 0.2 µM) | relative viability (BMX-IN-1 + Bortezomib; first compound 0.6325 µM) | relative viability (BMX-IN-1 + Bortezomib; first compound 2 µM)
NCI-H2087 | 0.467 | 0.58 | 0.401 | 0.497 | 0.398 | 0.42 | 0.344 | 0.377 | 1.67 | 1.44 | 1.3 | 1.42 | 0.995 | 0.966 | 0.728 | 0.68 | 1.09 | 0.959 | 1.07 | 0.814
NCI-H2126 | 0.725 | 0.717 | 0.712 | 0.687 | 0.515 | 0.524 | 0.517 | 0.513 | 1.03 | 1.06 | 1.16 | 1.04 | 1.03 | 1.02 | 1.05 | 1 | 1.13 | 1.17 | 1.19 | 1.19
NCI-H2347 | 0.4 | 0.395 | 0.38 | 0.46 | 0.184 | 0.441 | 0.352 | 0.553 | 0.787 | 0.833 | 0.712 | 0.945 | 0.82 | 0.715 | 0.748 | 0.826 | 0.985 | 1.24 | 1.14 | 1
NCI-H2405 | 0.65 | 0.638 | 0.598 | 0.71 | 0.398 | 0.403 | 0.391 | 0.361 | 0.831 | 0.941 | 0.762 | 0.805 | 0.862 | 0.829 | 0.818 | 0.862 | 0.989 | 1.1 | 0.999 | 1.01
NCI-H3122 | 1.25 | 0.972 | 0.919 | 0.925 | 0.378 | 0.377 | 0.365 | 0.333 | 1.22 | 1.16 | 1.11 | 1.07 | 0.251 | 0.274 | 0.234 | 0.294 | 1.04 | 0.974 | 1.05 | 0.994
PC-3 [JPC-3] | 0.834 | 0.698 | 0.773 | 0.821 | 0.484 | 0.468 | 0.461 | 0.489 | 0.886 | 0.925 | 0.918 | 0.847 | 1.03 | 1.07 | 0.944 | 0.972 | 0.913 | 0.955 | 0.944 | 0.824
PC-14 | 1.07 | 0.727 | 0.779 | 0.911 | 0.59 | 0.683 | 0.727 | 0.633 | 0.404 | 0.459 | 0.408 | 0.312 | 0.946 | 0.931 | 0.855 | 0.945 | 0.934 | 0.953 | 1.01 | 0.954
RERF-LC-KJ | 0.5 | 0.548 | 0.59 | 0.463 | 0.414 | 0.392 | 0.407 | 0.427 | 1.1 | 0.957 | 1.3 | 1.19 | 0.814 | 0.868 | 0.811 | 0.923 | 1.17 | 1.21 | 1.09 | 1.05

From the supplement of paper PMC10307832
